PMC13130965, “An Integrated Approach Combining Regulatory Tests in tg(cyp19a1b:GFP) Zebrafish Embryos to Assess Toxicity, Developmental Effects, and Estrogenic Activity of Chemicals: A Case Study with Bisphenol A Substitutes” (Environmental Science & Technology, 2026)
In brackets after ≈: the same amount, converted by molar mass. Several values for one entry are separate records, joined by “and”; a condition that tells them apart may be missing. Identical values can stand only once. Like-named read-outs stand apart in the source and are kept apart here.

Legend:
[1] = system: tg(cyp19a1b:GFP) zebrafish embryos; assay: Refined FET: developmental effects / malformations; assay type: in vivo, zebrafish (Danio rerio); conditions: nominal
Experimental: Exposures were carried out in presaturated 24-well plates containing one embryo per well in 2 mL of test solution. The exposure was performed under semistatic conditions, with daily renewal of the test solution. The concentration ranges tested, along with a control with the same percentage of solvent alone, are recapitulated in Table S1. All exposure concentrations are reported as nominal. During the time course of the refined FET tests, embryos were observed after 8 h (coagulation), 24 h (lack of somite formation and nondetachment of the tail), and 48, 72, and 96 h of exposure (nondetection of the heartbeat). […] Moreover, hatching rate and nonlethal developmental effects (i.e., yolk deformity, growth retardation, spontaneous movement, edema, blood tail circulation, heart rate, pigmentation, head and tail/spinal malformations, and hemorrhage) were monitored daily. Tail/spinal malformations included lordosis, kyphosis, scoliosis, and reduced tail length.
This analysis considered all nonlethal developmental end points monitored in the refined FET assay (see above), except effects on hatching, pigmentation, spontaneous movement, and blood circulation. A teratogenic index (TI) was then calculated as the ratio LC50/EC50.

[2] = system: cyp19a1b:GFP (brain aromatase) in tg(cyp19a1b:GFP) zebrafish embryos; assay: EASZY assay (OECD TG 250): GFP induction; assay type: in vivo, zebrafish (Danio rerio); conditions: Danio rerio, 96 h
Experimental: The tests were conducted according to OECD TG 250. Newly fertilized cyp19a1b-GFP eggs were transferred to glass crystallizing dishes and exposed for 96 h in a humidified climate chamber (27 ± 2 °C) under semistatic conditions with a total renewal of the test solutions each day. Each condition consisted of three crystallizing dishes, each containing 7 embryos and 15 mL of test medium. Embryos were exposed to a range of nonlethal concentrations of chemicals as determined previously based on the refined FET assays. The tested concentration ranges of bisphenols, along with a control with the same percentage of solvent alone, are summarized in Table S2. All exposure concentrations are reported as nominal. At the end of exposure, transgenic zebrafish embryos were collected for fluorescence imaging to quantify GFP intensity. At the end of the experiments, all living zebrafish embryos were euthanized as described above. […] ICI was added together with bisphenols from 0 to 4 dpf (days post fertilization). […] In all coexposure experiments, the final DMSO concentration was 0.02% (v/v).
For fluorescence imaging, GFP fold induction was expressed as mean ± SEM, and values were compared to the DMSO control using one-way ANOVA followed by Dunnett’s posthoc test. […]

zebrafish ERβ2 (zfERβ2) = zebrafish ERβ2 (zfERβ2) (Danio rerio, UniProt Q7ZU32); assay: ZELH-zfERβ2 luciferase reporter gene assay; assay type: cell-based; conditions: % of positive control E2 10 nM
Chain of zebrafish ERβ2 (zfERβ2) (Q7ZU32 1-553): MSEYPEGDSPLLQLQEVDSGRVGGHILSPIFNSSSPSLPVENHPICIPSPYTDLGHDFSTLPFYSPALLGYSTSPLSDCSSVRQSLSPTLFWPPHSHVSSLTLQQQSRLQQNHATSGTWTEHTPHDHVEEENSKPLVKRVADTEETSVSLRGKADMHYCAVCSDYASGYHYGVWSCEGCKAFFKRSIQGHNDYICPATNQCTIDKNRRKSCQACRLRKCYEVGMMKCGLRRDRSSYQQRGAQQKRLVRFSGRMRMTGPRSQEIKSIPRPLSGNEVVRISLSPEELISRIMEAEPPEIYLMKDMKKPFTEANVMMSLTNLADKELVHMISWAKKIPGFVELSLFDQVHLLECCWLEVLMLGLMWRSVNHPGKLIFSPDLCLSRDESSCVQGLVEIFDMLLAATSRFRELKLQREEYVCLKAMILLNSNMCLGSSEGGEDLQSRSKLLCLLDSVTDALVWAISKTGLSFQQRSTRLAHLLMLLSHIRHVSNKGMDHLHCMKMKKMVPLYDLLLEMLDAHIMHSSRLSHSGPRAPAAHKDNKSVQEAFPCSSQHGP
Experimental: The ZELH-zfERs reporter cell line was previously established after a two-step stable transfection of the zebrafish hepatic cell line ZFL with the luciferase gene under the control of ERE (yielding the ZELH cell line that expresses no functional ER) and the zebrafish ER subtype β2 (yielding the ZELH-zfERβ2 cell line). Cells were cultured, exposed to chemicals for 72 h, and measured for luciferase activity exactly as previously described. , For each chemical, serial dilutions were prepared in DMSO and tested in three independent experiments. The final DMSO concentration in the culture medium was always 0.1% v/v. All tested concentrations refer to nominal concentrations.

[3] = ref Adamovsky et al.; cited from earlier work
hERβ [4] = system: hERβ; set-up: method as in Grimaldi et al.; conditions: HELN-hERβ; ref Grimaldi et al.; cited from earlier work
hERβ [5] = system: hERβ; set-up: method as in Pelch et al.; conditions: HepG2-hERβ, ref Pelch et al., cited from earlier work
[6] = system: Zebrafish embryos ERE-GFP-Casper; set-up: method as in Green et al. (2016); conditions: 120h exposure; ref Green et al. (2016); cited from earlier work
[7] = experimental value; ref Epi-Suite (US-EPA); cited from earlier work
Zebrafish embryos = conditions: cited from earlier work; for LC50: read-out: LC50(96h)
Adult Zebrafish = conditions: ref Ren et al. (2017); cited from earlier work
Fathead minnow = conditions: 4-days exposure, ref Corrales et al. (2017); cited from earlier work
[8] = 72h exposure, ref Duan et al. (2008)
[9] = 120h-exposure, ref Qiu et al. (2021)
[10] = 150h exposure, ref Song et al. (2014)
[11] = zebrafish embryos, ref Ren et al. (2017)

## CC(C)(c1ccc(O)cc1)c1ccc(O)cc1 [BPA, 4-[2-(4-hydroxyphenyl)propan-2-yl] phenol]
[1]; Danio rerio, end of 96 h exposure, read-out: EC50 malformations (cumulative sublethal end points)
  EC50: 6.06 µg/mL (≈ 26.5 µM)
[1]
  LOEC edema: 10 mg/L
  LOEC growth retardation: 20 mg/L
  LOEC heart rate disruption: 20 mg/L
  LOEC hemorrhage: 10 mg/L
  LOEC no spontaneous movement: 10 mg/L
  LOEC no/Less pigmentation: 10 mg/L
  LOEC tail/spinal malformations: 10 mg/L
[1]; at least 10% of embryos affected
  LOEC deformity of yolk: 20 mg/L
[2]; read-out: EASZY LOEC (GFP induction), nominal
  minimal effective concentration: 0.625 µg/mL
[2]; read-out: EASZY relative EC50, nominal
  EC50: 0.98 µg/mL (≈ 4.29 µM)
Zebrafish ERβ2 (zfERβ2)
  maximal efficacy: 55%
[3]
  Log Kow: 3.32
hERβ [4]
  EC50: 0.384 µM
  maximal efficacy: 66%
hERβ [5]; NA = not active
  EC50: 0.35 µM
hERβ [5]
  maximal efficacy: 97%
[6]
  EC50: 1.226 µg/mL (≈ 5.37 µM)
  LOEC: 1000 µg/L and 4380.32 nM
[7]
  Water solubility: 300 µg/mL
Zebrafish embryos; 100 µM (23 mg/L) at 72h, ref Björnsdotter et al. (2017)
  mortality: 100%
Zebrafish embryos; 20 mg/L, 48h, ref Makarova et al. (2016)
  mortality: 65%
Zebrafish embryos; 4-days exposure, ref Blanc et al. (2019)
  LC10(96h): 6.62 µg/mL (≈ 29 µM)
Zebrafish embryos; 4-days exposure, ref Tišler et al. (2016)
  LC50(48h): 15.9 (13.8-18.3) mg/L
Zebrafish embryos; 5-15 µM, ref McCormick et al. (2010)
  mortality: 4-8%
Zebrafish embryos; [8]
  LC50(24h): 16.75 µg/mL (≈ 73.4 µM)
  NOEC: 2 mg/L
Zebrafish embryos; [9]
  LOEC (body length, GnRH3 neurons, reproductive neuroendocrine-related genes and hormones): 100 µg/L
  NOEC (body length, GnRH3 neurons, reproductive neuroendocrine-related genes and hormones): 1 µg/L
Zebrafish embryos; [10]
  LC50(144h): 7.5 µg/mL (≈ 32.9 µM)
  LOAELs: 5 mg/L
Zebrafish embryos; Wildtype (AB/TL), 1-6 dpf static + 6-9 dpf semistatic, ref Catron et al. (2018; 2019)
  NOEC (developmental toxicity): 11.5 µM
Zebrafish embryos; Zebrafish, 4-days exposure, ref Corrales et al. (2017)
  LC50(96h): 12.8 µg/mL (≈ 56.1 µM)
Zebrafish embryos; at 8.041 mg/L, 2-5 dpf exposure, ref Martínez et al. (2019)
  scoliosis (% of embryos): 16%
Zebrafish embryos; at 25 mg/L, ref Duan et al. (2008)
  mortality: 100%
Zebrafish embryos; 4-days exposure, ref Chow et al. (2013)
  LC50: 35 µM
Zebrafish embryos; Wildtype AB, 96h-exposure, ref Arrokhman et al. (2023)
  LC50: 57.1 µM
Zebrafish embryos; ref Chow et al. (2013)
  delayed hatching EC50(96h): 5.25 µg/mL
Zebrafish embryos; ref McCormick et al. (2011)
  LC50(5dpf): 5 (±0.89) mg/L
  LC50(28dpf): 1.8 µg/mL (≈ 7.88 µM)
  LOAEL(5dpf): 1 mg/L
Zebrafish embryos; ref Tišler et al. (2016)
  Edema EC50(48h): 13.9 (8.5-22.8) mg/L
  Hatching inhibition EC50(72h): 4.0 µg/mL
  Missing blood flow EC50(48h): 12.3 µg/mL
  Pigmentation EC50(48h): 3.6 (2.5-5.3) mg/L
Zebrafish embryos; zebrafish embryos, 95% CI, ref Chow et al.
  LC50 (96h) literature: 8.041 [7.846;8.24] mg/L
Zebrafish embryos; zebrafish embryos, 95% CI, ref Mu et al.
  LC50 (96h) literature: 10.4 [9.44–11.58] mg/L
Zebrafish embryos; zebrafish embryos, parentheses SEM, ref Moreman et al.
  LC50 (96h) literature: 12 (0.22) mg/L
Zebrafish embryos; zebrafish embryos, ref Arrokhman et al.
  LC50 (96h) literature: 13 mg/L (≈ 56.9 µM)
Zebrafish embryos; zebrafish embryos, ref Blanc et al.
  LC50 (96h) literature: 9.82 mg/L (≈ 43 µM)
Zebrafish embryos; zebrafish embryos, ref Gao et al.
  LC50 (96h) literature: 11.69 mg/L (≈ 51.2 µM)
Zebrafish embryos; [11]
  Body length LOEC: 4 mg/L
  Body length NOEC: 2 mg/L
Zebrafish embryos; zebrafish embryos, ref Ren et al.
  LC50 (96h) literature: 5.82 mg/L (≈ 25.5 µM)
Adult Zebrafish
  LC50(24h): 9.51 µg/mL (≈ 41.7 µM)
  LC50(48h): 9.31 µg/mL (≈ 40.8 µM)
  LC50(72h): 8.09 µg/mL (≈ 35.4 µM)
  LC50(96h): 8.09 µg/mL (≈ 35.4 µM)
Fathead minnow
  LC50(96h): 4.2 µg/mL (≈ 18.4 µM)
